The source of these data is ChEMBL document CHEMBL3507680, “University of Dundee, Gates Library screen for HepG2 cell viability”.

A short description of the series: Human HepG2 cell viability assay in 384 well format. It is filed as toxicity, cell-based. Also noted: dose 125 nL, time 70.5 hour; cytotoxicity at 70.5 h: concentration not given beside the values. The settings on record: HepG2 cells, read-out: Inhibition.
As for `CC(C)(C)OC(=O)N1CCCN(c2nnc(C3CC3)s2)CC1`, the cytotoxicity at 70.5 h is -0.941%. `CC(C)C(O)C1CCN(c2ccnc(C(=O)NCc3ccco3)c2)CC1` (stereo unspecified): the cytotoxicity at 70.5 h is -14.1%.

For the molecule `O=C(O)c1ccc(S(=O)(=O)Nc2c(F)cccc2-n2cccn2)cc1`, the cytotoxicity at 70.5 h was -1.35%. For `Cc1ccc(CN2CCC[C@@H]3CN(C(=O)c4ccco4)C[C@@H]32)o1`, the cytotoxicity at 70.5 h is -9.58%.

For `CN(Cc1cc(C2CC2)[nH]n1)C(=O)c1ccccc1C1CCNC1` (stereo unspecified), the cytotoxicity at 70.5 h is -3.91%.

In the case of `Cc1cnc(N2CCc3onc(COc4cccnc4)c3C2)nc1`, the cytotoxicity at 70.5 h was -3.25%. Regarding `Cc1cnn(CC2CN(Cc3ccccn3)CCO2)c1` (stereo unspecified), the cytotoxicity at 70.5 h was -5.81%. To `Cc1nc(NC2CCCC2)cc(C2CCN2C(=O)c2cnn(C)c2)n1` (stereo unspecified) belongs -3.93%; to `NC(=O)C1CCN(C(=O)NCc2ccccc2Cn2cncn2)CC1`, -3.83%. To `O=C(NCCCC(=O)N1Cc2ccccc2C1)NCc1nccs1` belongs -5.34%. In the case of `Cn1ccnc1CN1CCN(CC(=O)NCc2ccccc2F)CC1`, the cytotoxicity at 70.5 h was determined as 1.39%. For `Cc1nn(C)c(N(C)C)c1CNCCC(=O)NC1CCCC1` the value was 3.14%; for `CCC(Nc1nc(C)nc2onc(C)c12)c1cccs1` (stereo unspecified), -2.98%; for `NC(=O)CN(Cc1ncc(-c2ccc(Cl)cc2)o1)C1CCCC1`, -7.75%. For the molecule `CC(C)C(=O)N1CCC(Cc2nccnc2Nc2ccccn2)CC1`, the cytotoxicity at 70.5 h is -5.25%. In the case of `COCCn1ccc2cc(NC(C)=O)ccc21`, the cytotoxicity at 70.5 h is -5.43%.

Take `CCCc1cc(C(=O)N[C@@H]2CCC[C@@H](N3CCCC3)[C@@H]2O)no1`: the cytotoxicity at 70.5 h was -4%.

As to `CC(C)n1cc(N2CC(C(=O)N3CCC(C(N)=O)CC3)CC2=O)cn1` (stereo unspecified), the cytotoxicity at 70.5 h was -11.7%.

Regarding `Cc1cc(N2CCC(Cc3ccccc3)CC2)nc(-c2ccncc2)n1`, the cytotoxicity at 70.5 h was -10.7%. In the case of `CC(C)c1nccn1CCC(=O)N1CCCCC1c1ccn[nH]1` (stereo unspecified), the cytotoxicity at 70.5 h came to 3.76%. With `Fc1cccc(N2C[C@H]3CCN(c4cccnc4)C[C@H]3C2)c1`, the cytotoxicity at 70.5 h is -5.68%. For `CC(NC(=O)Nc1ccc(N2CCCC2)nc1)c1nncn1C` (stereo unspecified) the value was 5.27%; for `Cc1ccc(C(F)(F)F)cc1C(=O)N[C@H]1CN(CCO)C[C@@H]1C1CC1`, -3.09%; for `CN[C@@H]1CCC[C@@H](Oc2ccccc2Oc2ccc(C)cc2)[C@@H]1O`, 22.2%.

Take `CC(=O)N1CCN(C(=O)Cn2ccc3c(Cl)cccc32)CC1`: the cytotoxicity at 70.5 h was -16.8%. In the case of `Cc1ccc(CN(C)Cc2cc(C3CC3)[nH]n2)c(O)n1`, the cytotoxicity at 70.5 h is -5.35%. As to `CC(C)CN1CC(O)CN(S(=O)(=O)c2ccc(F)cc2)CC1=O` (stereo unspecified), the cytotoxicity at 70.5 h was -9.29%. To `CCN(CC)Cc1cc(C(=O)N2CCC3(CCN(C)CC3)C2)c(C)o1` belongs -14.5%; to `COCCN1C[C@@H]2OCCN(c3ccnc(N(C)C)n3)[C@@H]2C1`, 0.722%. Regarding `Cc1nc(Nc2ncccn2)cc(C2CN(C(=O)c3cccnc3)C2)n1`, the cytotoxicity at 70.5 h was -8.6%.

On to `Cn1cc(C2CCCN2c2ncnc3[nH]ccc23)cn1` (stereo unspecified), for which the cytotoxicity at 70.5 h was found to be 5.41%. As for `Fc1ccc(NCc2nnsc2Cl)c(OC(F)F)c1`, the cytotoxicity at 70.5 h came to 0.194%. As to `Cc1cc(C)n2ncc(CN3C[C@@H](O)[C@H](Oc4ccccc4)C3)c2n1`, the cytotoxicity at 70.5 h is -13.5%.

`NC(=O)c1cccc(OCCC(=O)NC2CCc3c(F)cccc32)c1` (stereo unspecified): the cytotoxicity at 70.5 h was -9.97%. For the molecule `Cc1nc(CN(C)Cc2cn[nH]c2-c2ccc(F)cc2)c[nH]1`, the cytotoxicity at 70.5 h came out at 5.97%. As for `CC(=O)N1CCC2(CC1)COC(COCc1ccccn1)C2` (stereo unspecified), the cytotoxicity at 70.5 h is -1.84%.

Take `N[C@H]1CN(C(=O)Cc2ccc(Cl)c(Cl)c2)C[C@@H]1C1CC1`: the cytotoxicity at 70.5 h was found to be 13.6%. For the molecule `CC(C)N1CCCC2(CCN(Cc3noc(C4CCCC4)n3)C2)C1=O` (stereo unspecified), the cytotoxicity at 70.5 h amounted to 11%. Turning to `Cc1csc2ncnc(N3CCC(Cn4cc(C(C)(C)O)nn4)CC3)c12`, the cytotoxicity at 70.5 h is 5.18%. As to `CC(O)CCN(C)S(=O)(=O)Cc1ccc(Cl)c(Cl)c1` (stereo unspecified), the cytotoxicity at 70.5 h is -3.92%.

`Cc1noc(COCC(=O)Nc2ncccc2Br)n1`: the cytotoxicity at 70.5 h turned out to be 2.34%. On to `Cc1ccc(C(=O)N2C[C@H]3CCC[C@@]3(COc3ccccn3)C2)nc1`, for which the cytotoxicity at 70.5 h was 11.3%.

For `Cn1cc(CN2CCc3onc(C(=O)N4CCCC4)c3C2)cn1`, the cytotoxicity at 70.5 h came out at 5.88%.

`Brc1ccccc1-c1nnc(CNCCn2cccn2)o1`: the cytotoxicity at 70.5 h turned out to be 12.2%.

On to `CC(C)(C)c1n[nH]c(C2CN(CC3CCC3)CCO2)n1` (stereo unspecified), for which the cytotoxicity at 70.5 h was -0.868%.

For the molecule `CCN(Cc1ccccc1)Cc1nc2c(cnn2C)c(=O)[nH]1`, the cytotoxicity at 70.5 h stood at 17%. In the case of `CCOc1ccc(C2SCC(=O)Nc3c2c(=O)[nH]n3C(CC)CC)cc1` (stereo unspecified), the cytotoxicity at 70.5 h is -6.79%. For the molecule `CC(=O)Nn1c(C)cc(CN2CCC(C(=O)N3CCCC3)CC2)c1C`, the cytotoxicity at 70.5 h is -2.42%. On to `NCc1n[nH]c(-c2ccc(F)cc2)n1`, for which the cytotoxicity at 70.5 h is -0.714%. `CN(CCCc1ccccc1)Cc1nc2c(cnn2C)c(=O)[nH]1`: the cytotoxicity at 70.5 h was -5.07%.

As to `O=C(O)[C@@H]1CN(C(=O)CC2CCCC2)C[C@H]1c1ccc(F)cc1`, the cytotoxicity at 70.5 h is -6.35%.

For `COCCc1noc(CN2CC(Cc3ccccc3)CC2=O)n1` (stereo unspecified), the cytotoxicity at 70.5 h was -20.5%. As to `CN(C)c1cc(C2CCCN(C(=O)Cn3cc(Cl)cn3)C2)ccn1` (stereo unspecified), the cytotoxicity at 70.5 h is -4.03%. `CC(C)[C@H](NS(C)(=O)=O)C(=O)NCc1cc(-c2ccccc2)nn1C`: the cytotoxicity at 70.5 h was 7.09%. On to `O=C(c1cnc(O)c(Cl)c1)N1CCCC(c2nccs2)C1` (stereo unspecified), for which the cytotoxicity at 70.5 h stood at 6.3%.

Consider `Cc1ccc(C2CN(CCS(C)(=O)=O)CCO2)c(C)c1` (stereo unspecified), for which the cytotoxicity at 70.5 h is -12.5%. For `O=C(O)c1nnn(Cc2cccc(C(F)(F)F)c2)c1-c1ccccn1` the value was -7.66%; for `O=C(NCc1ccc2c(c1)CCCO2)c1ccccc1C1CCNC1` (stereo unspecified), -20.6%; for `CNC(=O)C1CCN(c2nccc(CCC(F)(F)F)n2)C1` (stereo unspecified), -3.72%. To `CSc1ccccc1C(C(=O)O)N(C)CC1CCOCC1` (stereo unspecified) belongs 3.4%; to `NC(=O)Cn1cc(NC(=O)N2CCSCC2)cn1`, 15.3%; to `Cc1nn(C)c2ncnc(N3CCCC(OCc4cccnc4)C3)c12` (stereo unspecified), -3.45%. Take `CCn1nc(C)c2c1cnn2CC(=O)NC(C)c1cccc(OC)c1` (stereo unspecified): the cytotoxicity at 70.5 h is -15.4%.

Consider `Cc1cc(N2CCN(C(=O)c3cc(Cl)c[nH]3)CC2)nc(C(C)C)n1`, for which the cytotoxicity at 70.5 h was -7.83%. For `CC(C)N(C)C(=O)CN1C(=O)OC[C@@H]1c1ccccc1` the value was 0.286%; for `COc1ccc(CCC(=O)N2CCCC2Cn2cc(C)cn2)cc1F` (stereo unspecified), -6.64%; for `CNC(=O)c1cc2c(nc1NCC(C)C)CCN(CCOC)CC2`, 4.78%.

In the case of `Cc1cc(N(C)CCOc2ccccc2F)nc(N)n1`, the cytotoxicity at 70.5 h was -2.43%.

For the molecule `CCSCc1cccc(NC2CCN(C)C2=O)c1` (stereo unspecified), the cytotoxicity at 70.5 h came to 19.7%. Regarding `CNC(=O)c1cnc(/C=C/c2ccc(OC)c(O)c2)s1`, the cytotoxicity at 70.5 h was -6.12%. For `Clc1cccc(-n2cnnn2)c1N1CCCC1` the value was 3.81%.
